Measured values taken from paper PMC6076275, “Novel Arginine-containing Macrocyclic MMP Inhibitors: Synthesis, ^99mTc-labeling, and Evaluation” (Scientific Reports, 2018).
≈ marks a conversion by molar mass, not a printed value. Read-outs that look alike come from different tables or passages of the source.

Columns and labels:
[1] = background statement, no own test described; cited from earlier work
rhMMP-13 = target: T1, rhMMP-13 (Homo sapiens, UniProt P45452); experiment: MMP inhibition assay, fluorogenic substrate cleavage kinetics; format: biochemical
T1 construct: purchased R&D Systems (Minneapolis, MN, USA)
Protocol: (§1) MMP inhibition assays were carried out based on the kinetic effects of an inhibitor on the MMP-mediated catalytic cleavage of a fluorogenic substrate, namely Mca-Lys-Pro-Leu-Gly-Leu-Dpa-Ala-Arg-NH2, as reported by others previously[9],[23],[28]. In the first set of studies, the inhibitory effect of RYM was evaluated against 5 activated recombinant human (rh)MMPs, including rhMMP-2, rhMMP-7, rhMMP-9, rhMMP-12, and rhMMP-13.
(§2) The recombinant human MMPs (rhMMPs) including rhMMP-2, rhMMP-7, rhMMP-9, rhMMP-12, and rhMMP-13 were purchased from R&D Systems (Minneapolis, MN, USA). A buffer consisting of 50 mM Tris, 10 mM CaCl2, 150 mM NaCl, 0.05% Brij-35 (w/v) (pH 7.5, […]) was used for all the MMP assays. A mixture of the rhMMPs (500 ng, 9 µL in assay buffer) and p-aminophenylmercuric acetate (APMA, 1 µL, 10.0 mM in DMSO) was incubated at 37 °C (1 h/rhMMP-2, 2 h/rhMMP-7, 24 h/rhMMP-9, 4 h/rhMMP-12, and 2 h/rhMMP-13) according to the procedures described by R&D Systems. The activated MMPs were diluted to 500 µL in the assay buffer for inhibition assays. The assays were carried out in 96-well black non-binding surface microplates (Fisher Scientific). Seventy microliter (for inhibitor wells) and 80 µL (control wells) of the assay buffer were first added into each well as designed, followed by adding 10 µL (10 ng) of the activated MMP solutions into each well. The inhibitor solutions at 4 different concentrations (10 µL each well) were added into the corresponding inhibitor wells in the microplate which was then swirled at room temperature for 30 min. Ten microliter of the fluorogenic MMP substrate solutions (R&D SYSTEMS®) at 4 different concentrations (20.0, 30.0, 40.0, and 50.0 µM) in assay buffer were added into each well to make a total volume of 100 µL. […] Finally, the competitive inhibition constants (Ki value) were calculated from the mean velocity values, and related substrate (S) and inhibitor (I) concentrations using GraphPad Prism 6 by the following equation for competitive inhibition, where Vmax is the maximal velocity, the KM Michaelis-Menten constant: v=Vmax[S]/KM(1+[I]/Ki)+[S]

rhMMP-7 = target: T2, rhMMP-7 (Homo sapiens, UniProt P09237); experiment: as above; format: biochemical; settings: mean ± SD of three experiments
T2 construct: purchased R&D Systems (Minneapolis, MN, USA)
T2 sequence (P09237 95-267): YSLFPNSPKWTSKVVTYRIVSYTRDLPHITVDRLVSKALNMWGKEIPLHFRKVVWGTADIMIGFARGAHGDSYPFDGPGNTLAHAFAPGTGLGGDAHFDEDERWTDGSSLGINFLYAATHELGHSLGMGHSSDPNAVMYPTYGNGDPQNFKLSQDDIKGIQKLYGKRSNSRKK
Protocol: as §1, with “rhMMP-13. […] RYM also had potent MMP inhibition with Ki values at nM concentrations.” for “rhMMP-13.”
The recombinant human MMPs (rhMMPs) including rhMMP-2, rhMMP-7, rhMMP-9, rhMMP-12, and rhMMP-13 were purchased from R&D Systems (Minneapolis, MN, USA). […] The microplate fluorescence was measured at 320 nm (excitation) and 405 nm (emission) wavelengths for 30 min (1.44 min intervals, sensitivity 100, shaking intensity 4 and duration 30 s) by a fluorescent plate reader (BIO-TEK/Synergy HT) to generate the fluorescence kinetic curves and related mean velocity values (v), i.e. relative fluorescence units per min (RFU/min). Finally, the competitive inhibition constants (Ki value) were calculated from the mean velocity values, and related substrate (S) and inhibitor (I) concentrations using GraphPad Prism 6 by the following equation for competitive inhibition, where Vmax is the maximal velocity, the KM Michaelis-Menten constant: v=Vmax[S]/KM(1+[I]/Ki)+[S]

rhMMP-12 [2] = target: T3, rhMMP-12 (Homo sapiens, UniProt P39900); experiment: as above; format: biochemical; settings: mean ± SD of three experiments
T3 construct: purchased R&D Systems (Minneapolis, MN, USA)
Protocol: as §1, with “rhMMP-13. […] RYM also had potent MMP inhibition with Ki values at nM concentrations.” for “rhMMP-13.”
Next, we evaluated the effect of ^99mTc-labeling on RYM MMP inhibition, using rhMMP-12 as a representative enzyme. A solution of ^99mTc-RYM1 prepared from 2 µg of RYM1 was decayed at −80 °C for two days, lyophilized, and re-dissolved in saline for MMP inhibition assays.
The recombinant human MMPs (rhMMPs) including rhMMP-2, rhMMP-7, rhMMP-9, rhMMP-12, and rhMMP-13 were purchased from R&D Systems (Minneapolis, MN, USA). […] The microplate fluorescence was measured at 320 nm (excitation) and 405 nm (emission) wavelengths for 30 min (1.44 min intervals, sensitivity 100, shaking intensity 4 and duration 30 s) by a fluorescent plate reader (BIO-TEK/Synergy HT) to generate the fluorescence kinetic curves and related mean velocity values (v), i.e. relative fluorescence units per min (RFU/min). […]

[3] = target: Recombinant Human TACE/ADAM17 (Homo sapiens, UniProt P78536); experiment: TACE inhibition assay, fluorogenic peptide substrate
Water solubility = format: physicochemical; settings: described as good water solubility
rhMMP-12 [4] = target: T3, rhMMP-12; parameters: method as in PMID 28360209; settings: value marked with citation; cited from earlier work
rhMMP-2 = target: T4, rhMMP-2 (Homo sapiens, UniProt P08253); experiment: MMP inhibition assay, fluorogenic substrate cleavage kinetics; format: biochemical; settings: mean ± SD of three experiments
T4 construct: purchased R&D Systems (Minneapolis, MN, USA)
T4 sequence (P08253 110-660): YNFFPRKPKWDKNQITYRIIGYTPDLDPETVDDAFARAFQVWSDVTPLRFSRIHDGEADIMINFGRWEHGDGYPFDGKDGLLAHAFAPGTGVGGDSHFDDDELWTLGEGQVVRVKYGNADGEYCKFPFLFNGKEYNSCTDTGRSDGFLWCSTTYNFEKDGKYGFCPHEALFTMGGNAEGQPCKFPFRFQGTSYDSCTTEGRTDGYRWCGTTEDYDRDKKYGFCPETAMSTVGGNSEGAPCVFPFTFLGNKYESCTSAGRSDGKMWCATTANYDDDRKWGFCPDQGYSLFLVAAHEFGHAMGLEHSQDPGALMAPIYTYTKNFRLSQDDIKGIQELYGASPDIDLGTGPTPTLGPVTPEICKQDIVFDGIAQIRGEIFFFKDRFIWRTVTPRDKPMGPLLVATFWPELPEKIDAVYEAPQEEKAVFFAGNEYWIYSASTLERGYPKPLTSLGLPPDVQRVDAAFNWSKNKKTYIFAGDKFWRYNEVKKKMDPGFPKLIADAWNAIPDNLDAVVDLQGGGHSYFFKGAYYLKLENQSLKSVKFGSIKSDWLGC
Protocol: as §1, §2

rhMMP-9 = target: T5, rhMMP-9 (Homo sapiens, UniProt P14780); experiment: as above; format: biochemical; settings: mean ± SD of three experiments
T5 construct: purchased R&D Systems (Minneapolis, MN, USA)
Protocol: as §1, §2

T3 sequence (P39900 106-470): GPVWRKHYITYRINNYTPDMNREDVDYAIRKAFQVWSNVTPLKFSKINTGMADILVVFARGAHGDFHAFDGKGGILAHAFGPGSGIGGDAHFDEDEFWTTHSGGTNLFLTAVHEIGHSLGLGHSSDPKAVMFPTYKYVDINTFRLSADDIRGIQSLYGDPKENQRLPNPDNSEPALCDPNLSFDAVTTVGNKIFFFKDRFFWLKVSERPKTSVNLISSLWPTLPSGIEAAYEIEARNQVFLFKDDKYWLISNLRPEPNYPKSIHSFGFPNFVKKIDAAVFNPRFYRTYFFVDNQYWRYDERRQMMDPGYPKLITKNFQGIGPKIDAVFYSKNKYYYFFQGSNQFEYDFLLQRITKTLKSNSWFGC
Recombinant Human TACE/ADAM17, sequence (P78536 215-824): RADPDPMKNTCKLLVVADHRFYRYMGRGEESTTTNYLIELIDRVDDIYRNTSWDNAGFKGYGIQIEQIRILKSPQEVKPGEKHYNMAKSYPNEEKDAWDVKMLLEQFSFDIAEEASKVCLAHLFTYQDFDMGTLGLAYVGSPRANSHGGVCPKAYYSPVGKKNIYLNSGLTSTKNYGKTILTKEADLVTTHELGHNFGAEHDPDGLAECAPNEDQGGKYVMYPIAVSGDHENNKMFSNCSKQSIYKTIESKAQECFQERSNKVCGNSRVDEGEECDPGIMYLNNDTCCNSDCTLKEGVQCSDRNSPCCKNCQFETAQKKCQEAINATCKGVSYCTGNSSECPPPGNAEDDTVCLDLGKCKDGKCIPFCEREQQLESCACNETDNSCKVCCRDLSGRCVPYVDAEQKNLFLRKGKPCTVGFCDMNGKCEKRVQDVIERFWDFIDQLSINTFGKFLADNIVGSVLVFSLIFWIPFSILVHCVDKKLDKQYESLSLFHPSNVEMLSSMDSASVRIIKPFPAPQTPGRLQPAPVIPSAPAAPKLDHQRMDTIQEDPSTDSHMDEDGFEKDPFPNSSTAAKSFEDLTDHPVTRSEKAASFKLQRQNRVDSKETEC
T5 sequence (P14780 107-707 limits assumed): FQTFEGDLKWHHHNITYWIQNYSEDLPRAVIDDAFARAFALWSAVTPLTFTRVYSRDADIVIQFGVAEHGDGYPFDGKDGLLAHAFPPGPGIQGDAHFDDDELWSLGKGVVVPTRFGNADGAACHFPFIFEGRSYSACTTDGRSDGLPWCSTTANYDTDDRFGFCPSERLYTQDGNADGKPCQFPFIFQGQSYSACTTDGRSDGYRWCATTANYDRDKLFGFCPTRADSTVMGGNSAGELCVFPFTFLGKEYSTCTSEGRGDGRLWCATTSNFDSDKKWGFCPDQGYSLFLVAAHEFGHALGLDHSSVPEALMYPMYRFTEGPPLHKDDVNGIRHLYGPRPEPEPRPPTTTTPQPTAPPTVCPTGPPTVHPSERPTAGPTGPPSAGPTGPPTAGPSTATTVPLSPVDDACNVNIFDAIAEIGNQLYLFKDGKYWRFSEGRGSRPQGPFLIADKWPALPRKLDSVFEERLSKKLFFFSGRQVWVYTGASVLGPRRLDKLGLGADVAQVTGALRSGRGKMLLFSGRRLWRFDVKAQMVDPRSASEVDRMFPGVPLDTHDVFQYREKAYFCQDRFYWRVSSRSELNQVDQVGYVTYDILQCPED

Compound | Ki (rhMMP-7) [nM] | Ki (rhMMP-12 [2]) [nM] | Ki [3] [nM] | solubility (Water solubility) [µg/mL] | water solubility (in words) [1] | other results
CNC(=O)[C@H](Cc1ccccc1)NC(=O)[C@H](CC(C)C)[C@H](CSc1cccs1)C(=O)NO [batimastat (BB-94), batimastat] | – | – | – | – | very poor water solubility | –
CC(C)CC1C(=O)NC(C(=O)NCc2ccc(CNC(=O)c3ccc(NN)nc3)cc2)Cc2ccc(cc2)OCCCC1C(=O)NO (centres unmarked) [RP805 precursor] | – | – | – | – | poor water solubility | –

The next lines start with results.

Ki (rhMMP-7) [nM] | Ki (rhMMP-12 [2]) [nM] | Ki [3] [nM] | solubility (Water solubility) [µg/mL] | Compound | water solubility (in words) [1] | other results
0.4 | 0.6 | 113 ± 4.1 | – | CNC(=O)[C@H](Cc1c[nH]c2ccccc12)NC(=O)[C@@H](CC(=O)NO)CC(C)C [GM-6001, reference compound] | very poor water solubility | Ki (rhMMP-13): 0.3 nM
– | – | 8.6 ± 2.2 | 10000 (≈ 13.8 mM) | CC(C)CC1C(=O)NC(C(=O)NC(CCCNC(=N)N)C(=O)NCCNC(=O)c2ccc(NN)nc2)Cc2ccc(cc2)OCCCC1C(=O)NO [RYM1, (6 S,7 R,10 S)-N^10-((S)-5-guanidino-1-((2-(6-hydrazinylnicotinamido)ethyl)amino)-1-oxopentan-2-yl)-N^6-hydroxy-7-isobutyl-8-oxo-2-oxa-9-aza-1(1,4)-benzenacyclo undecaphane-6,10-dicarboxamide] | – | Ki (rhMMP-12 [4]): 2.2 ± 0.5 nM
17.2 ± 0.1 | 1 ± 0.5 | 4.9 ± 1.3 | 10000 (≈ 17.8 mM) | CNC(=O)C(CCCNC(=N)N)NC(=O)C1Cc2ccc(cc2)OCCCC(C(=O)NO)C(CC(C)C)C(=O)N1 (centres unmarked) [RYM] | – | Ki (rhMMP-13; mean ± SD of three experiments, read-out: Ki rhMMP-13): 15.3 ± 5.4 nM; Ki (rhMMP-2): 5.8 ± 0.4 nM; Ki (rhMMP-9): 20.4 ± 2 nM
